From PubChem BioAssay AID1963852 (Molecular Pharmacology Branch, DTP, NCI, 2024)
pIC50: −log10 of the molar value.

Tested on: 282377-053-R-J1-PDC complex spheroid viability
Assay: Anticancer human tumor 282377-053-R-J1-PDC patient-derived colon adenocarcinoma cell line growth inhibition [POLQ]
Conditions: for pIC50: curve of first compound; for viability, T/C: stronger effect = lower value; active = viability on the fitted dose curve at most 10% of control; inactive = the rest
Experimental: Multicellular complex tumor spheroid response to Polymerase (POL) inhibitors (novobiocin, ART-558, RP6685) in combination with a variety of drugs and investigational agents in selected tumor cell lines
The POL inhibitors (novobiocin, ART-558, and RP6685) were evaluated both individually and in combination with standard of care and investigational anticancer small molecules within a complex spheroid model of solid tumors. . Complex spheroids include a stromal component modeled by human endothelial cells (HUVEC) and fibroblasts modeled by human mesenchymal stem cells (MSCs). The concentration ranges selected for each drug and investigational agent were based upon clinically achievable concentrations if the clinical Cmax of the agent was known.
Compounds. The drugs and investigational agents: novobiocin (NSC847541), ART-558 (NSC835418), RP-6685 (NSC848927), peposertib (NSC802822), ceralasertib (NSC780249), elimusertib (NSC800525), camonsertib (NSC841442), AZD-1390 (NSC803789), olaparib (NSC753686), talazoparib (NSC767125), rucaparib (NSC756644), sotorasib (NSC818433), MRTX-1133 (NSC836407), SN-38 (NSC673596), topotecan (NSC609699), epotoside (NSC141540), doxorubicin (NSC123127), gemcitabine (NSC613327), 5-fluorouracil (NSC19893), paclitaxel (NSC125973), vemurafenib (NSC761431), MSA-2 (NSC828583), SN-011 (NSC837082), adavosertib (NSC754352), prexasertib (NSC758257), carboplatin (NSC241240) and oxaliplatin (NSC266046), were obtained from the National Cancer Institute (NCI) Developmental Therapeutics Program Chemical Repository (21). The FDA-approved anticancer drug set is available from the Developmental Therapeutics Program at https://dtp.cancer.gov/organization/dscb/obtaining/. […] The stock solutions were prepared in dimethyl sulfoxide (DMSO, Sigma-Aldrich, St. Louis, MO, cat. D2650), except for the platinum compounds which were prepared in saline (Quality Biological, Gaithersburg, MD, cat. 114-055-101), at 800-fold the tested concentration and stored at -70 degrees C prior to their use. All drugs and investigational agents were tested over a range starting from a high concentration at or near the clinical Cmax and decreasing in half-log increments. If the clinical Cmax for an agent had not been determined, the highest concentration tested was 10 microM, except for SN-38, which was tested at a high concentration of 1 microM.
Cell Culture. All cells were maintained in an incubator at 37 degrees C and 5% CO2 with 95% humidity. The PDC lines were cultured according to standard operating procedures established by the NCI PDMR (https://pdmr.cancer.gov). Table 3 of the manuscript, lists the cell lines along with the number of the three cell types plated to form the mct-spheroids and media for tumor cell growth. After thawing, all PDC lines, except 997537-175-T-J1-PDC and 415267-285-R-J2-PDC, were cultured in Matrigel-coated flasks prepared with a working solution of 1X Ham's F-12 nutrient mix, without supplementation (Thermo Fisher Scientific, cat. 11765054), 100 U/mL penicillin-streptomycin (Thermo Fisher Scientific, cat. 15140122), and 2.5% Matrigel (Corning Inc., Corning, NY, cat. 354248) for the first three passages. The two PDC lines 997537-175-T-J1-PDC and 415267-285-R-J2-PDC were cultured on uncoated flasks. The 857933-349-R-J2-PDC line was cultured in 6C/Colon 1B media containing advanced DMEM/F-12 (Thermo Fisher Scientific, cat. 12634028), 10 mM HEPES (Thermo Fisher Scientific, cat. 15630080), 1X GlutaMAX supplement (Thermo Fisher Scientific, cat. 35050061), 0.1 mg/mL primocin (InvivoGen, San Diego, CA, cat. ant-pm-2), 10% defined fetal bovine serum, heat inactivated (HyClone Laboratories Inc., Logan, UT, cat. SH30070.03HI), 50% L-WRN conditioned media (ATCC, cat. CRL-3276), 1.25 mM N-Acetyl-L-cysteine (Sigma-Aldrich, cat. A9165), 10 mM nicotinamide (Sigma-Aldrich, cat. N0636), 1X B-27 supplement (Thermo Fisher Scientific, cat. 17504044), 1X N-2 supplement (Thermo Fisher Scientific, cat. […]

[1] = second compound 0.0316 µM, first compound 0.0316 µM
[2] = second compound 0.0316 µM, first compound 0.1 µM
[3] = second compound 0.0316 µM, first compound 0.316 µM
[4] = second compound 0.0316 µM, first compound 1 µM
[5] = second compound 0.0316 µM, first compound 3.16 µM
[6] = second compound 0.0316 µM, first compound 10 µM
[7] = second compound 0.1 µM, first compound 0.0316 µM
[8] = second compound 0.1 µM, first compound 0.1 µM
[9] = second compound 0.1 µM, first compound 0.316 µM
[10] = second compound 0.1 µM, first compound 1 µM
[11] = second compound 0.1 µM, first compound 3.16 µM
[12] = second compound 0.1 µM, first compound 10 µM
[13] = second compound 0.316 µM, first compound 0.0316 µM
[14] = second compound 0.316 µM, first compound 0.1 µM
[15] = second compound 0.316 µM, first compound 0.316 µM
[16] = second compound 0.316 µM, first compound 1 µM
[17] = second compound 0.316 µM, first compound 3.16 µM
[18] = second compound 0.316 µM, first compound 10 µM
[19] = second compound 1 µM, first compound 0.0316 µM
[20] = second compound 1 µM, first compound 0.1 µM
[21] = second compound 1 µM, first compound 0.316 µM
[22] = second compound 1 µM, first compound 1 µM
[23] = second compound 1 µM, first compound 3.16 µM
[24] = second compound 1 µM, first compound 10 µM
[25] = second compound 3.16 µM, first compound 0.0316 µM
[26] = second compound 3.16 µM, first compound 0.1 µM
[27] = second compound 3.16 µM, first compound 0.316 µM
[28] = second compound 3.16 µM, first compound 1 µM
[29] = second compound 3.16 µM, first compound 3.16 µM
[30] = second compound 3.16 µM, first compound 10 µM
[31] = second compound 10 µM, first compound 0.0316 µM
[32] = second compound 10 µM, first compound 0.1 µM
[33] = second compound 10 µM, first compound 0.316 µM
[34] = second compound 10 µM, first compound 1 µM
[35] = second compound 10 µM, first compound 3.16 µM
[36] = second compound 10 µM, first compound 10 µM
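Also: spheroids exposed to compounds for seven days.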

CCc1cc2c(N3CCc4c(cc(Cn5ccnc5)cc4-c4cn(C)nc4C(F)(F)F)C3=O)ccnc2c(OC)n1 + Cc1cccc(N(C)C(=O)C2C(O)CCN2c2nc(C)cc(C(F)(F)F)c2C#N)c1
< 5.00: pIC50 (second compound 0.0316 µM) | pIC50 (second compound 0.1 µM) | pIC50 (second compound 0.316 µM) | pIC50 (second compound 1 µM) | pIC50 (second compound 3.16 µM) | pIC50 (second compound 10 µM)
inactive: viability, T/C [1] 108% | viability, T/C [2] 94.1% | viability, T/C [3] 91% | viability, T/C [4] 110% | viability, T/C [5] 104% | viability, T/C [6] 106% | viability, T/C [7] 93.4% | viability, T/C [8] 90.9% | viability, T/C [9] 85.8% | viability, T/C [10] 91.4% | viability, T/C [11] 103% | viability, T/C [12] 121% | viability, T/C [13] 95% | viability, T/C [14] 94.9% | viability, T/C [15] 89.8% | viability, T/C [16] 86.1% | viability, T/C [17] 104% | viability, T/C [18] 93.8% | viability, T/C [19] 95.2% | viability, T/C [20] 87.6% | viability, T/C [21] 104% | viability, T/C [22] 101% | viability, T/C [23] 107% | viability, T/C [24] 109% | viability, T/C [25] 98.9% | viability, T/C [26] 91.6% | viability, T/C [27] 101% | viability, T/C [28] 99.6% | viability, T/C [29] 115% | viability, T/C [30] 116% | viability, T/C [31] 98.9% | viability, T/C [32] 95.6% | viability, T/C [33] 108% | viability, T/C [34] 96.4% | viability, T/C [35] 111% | viability, T/C [36] 124%

CNCc1ccc(-c2[nH]c3cc(F)cc4c3c2CCNC4=O)cc1 + Cc1cccc(N(C)C(=O)C2C(O)CCN2c2nc(C)cc(C(F)(F)F)c2C#N)c1
inactive: viability, T/C [1] 122% | viability, T/C [2] 89.9% | viability, T/C [3] 135% | viability, T/C [4] 113% | viability, T/C [5] 122% | viability, T/C [6] 144% | viability, T/C [7] 122% | viability, T/C [8] 94.3% | viability, T/C [9] 98.2% | viability, T/C [10] 93% | viability, T/C [11] 134% | viability, T/C [12] 140% | viability, T/C [13] 99.1% | viability, T/C [14] 105% | viability, T/C [15] 87.4% | viability, T/C [16] 98.1% | viability, T/C [17] 113% | viability, T/C [18] 124% | viability, T/C [19] 117% | viability, T/C [20] 98.7% | viability, T/C [21] 105% | viability, T/C [22] 104% | viability, T/C [23] 138% | viability, T/C [24] 129% | viability, T/C [25] 85.9% | viability, T/C [26] 114% | viability, T/C [27] 80.2% | viability, T/C [28] 85.1% | viability, T/C [29] 117% | viability, T/C [30] 150% | viability, T/C [31] 104% | viability, T/C [32] 98.4% | viability, T/C [33] 104% | viability, T/C [34] 103% | viability, T/C [35] 103% | viability, T/C [36] 138%
< 5.00: pIC50 (second compound 0.0316 µM) | pIC50 (second compound 0.1 µM) | pIC50 (second compound 0.316 µM) | pIC50 (second compound 1 µM) | pIC50 (second compound 3.16 µM) | pIC50 (second compound 10 µM)

COc1cc2cc(C(=O)CCC(=O)O)sc2cc1OC + Cc1cccc(N(C)C(=O)C2C(O)CCN2c2nc(C)cc(C(F)(F)F)c2C#N)c1
inactive: viability, T/C [1] 106% | viability, T/C [2] 112% | viability, T/C [3] 101% | viability, T/C [4] 106% | viability, T/C [5] 109% | viability, T/C [6] 104% | viability, T/C [7] 112% | viability, T/C [8] 107% | viability, T/C [9] 102% | viability, T/C [10] 95.8% | viability, T/C [11] 115% | viability, T/C [12] 89.4% | viability, T/C [13] 119% | viability, T/C [14] 107% | viability, T/C [15] 113% | viability, T/C [16] 97% | viability, T/C [17] 107% | viability, T/C [18] 95.1% | viability, T/C [19] 116% | viability, T/C [20] 103% | viability, T/C [21] 107% | viability, T/C [22] 107% | viability, T/C [23] 103% | viability, T/C [24] 105% | viability, T/C [25] 106% | viability, T/C [26] 106% | viability, T/C [27] 103% | viability, T/C [28] 108% | viability, T/C [29] 113% | viability, T/C [30] 108% | viability, T/C [31] 107% | viability, T/C [32] 112% | viability, T/C [33] 117% | viability, T/C [34] 100% | viability, T/C [35] 122% | viability, T/C [36] 109%
< 5.00: pIC50 (second compound 0.0316 µM) | pIC50 (second compound 0.1 µM) | pIC50 (second compound 0.316 µM) | pIC50 (second compound 1 µM) | pIC50 (second compound 3.16 µM) | pIC50 (second compound 10 µM)

COc1cc(C2c3cc4c(cc3C(OC3OC5COC(C)OC5C(O)C3O)C3COC(=O)C23)OCO4)cc(OC)c1O (stereo not drawn) + Nc1ccc(C#CCN(C(=O)Cc2ncc(C(F)(F)F)cc2C(F)(F)F)c2ccc(F)cc2)nn1
inactive: viability, T/C [1] 113% | viability, T/C [2] 88.9% | viability, T/C [3] 116% | viability, T/C [4] 114% | viability, T/C [5] 109% | viability, T/C [6] 108% | viability, T/C [7] 100% | viability, T/C [8] 97.8% | viability, T/C [9] 83.5% | viability, T/C [10] 94.3% | viability, T/C [11] 98% | viability, T/C [12] 87.3% | viability, T/C [13] 93.1% | viability, T/C [14] 99.3% | viability, T/C [15] 75.8% | viability, T/C [16] 99.7% | viability, T/C [17] 96.6% | viability, T/C [18] 93.5% | viability, T/C [19] 88.6% | viability, T/C [20] 98.6% | viability, T/C [21] 107% | viability, T/C [22] 121% | viability, T/C [23] 113% | viability, T/C [24] 83% | viability, T/C [25] 118% | viability, T/C [26] 102% | viability, T/C [27] 119% | viability, T/C [28] 127% | viability, T/C [29] 92.5% | viability, T/C [30] 91.9% | viability, T/C [31] 107% | viability, T/C [32] 122% | viability, T/C [33] 139% | viability, T/C [34] 146% | viability, T/C [35] 115% | viability, T/C [36] 106%
< 5.00: pIC50 (second compound 0.0316 µM) | pIC50 (second compound 0.1 µM) | pIC50 (second compound 0.316 µM) | pIC50 (second compound 1 µM) | pIC50 (second compound 3.16 µM) | pIC50 (second compound 10 µM)
